≈ marks a conversion by molar mass, not a printed value.
What was measured:
Format in all cases: cell-based
[1] = tested on: Aspergillus niger ATCC 16404; test: Test for adequate preservation (European Pharmacopea), 1,2-diols and 1,2-diol mixtures in O/W emulsion; settings: for germ count A. niger: 3% diol(s) in O/W emulsion; for reduction in the number of colony forming units (CFU) to the 0 value: Aspergillus niger, dosage of 3%, 28 days
Procedure: A test for adequate preservation was carried out in accordance with the European Pharmacopea. The test thus consists of the contamination of the formulation, if possible in its final ratio, with a prescribed inoculum of suitable microorganisms, storage of the inoculated formulation at a specific temperature, taking of samples from the vessel at specific intervals and determination of the number of microorganisms in the samples taken in this way. The preserving properties are adequate if, under the conditions of the test, there is a distinct reduction or optionally no increase in the germ count in the inoculated formulations after the prescribed times at the prescribed temperatures. Experimental details of the test procedure are described in the European Pharmacopea (ISBN 3-7692-2768-9; 2001 supplement to the 3rd Edition, page 421-422, chapter 5.1.3). The initial germ count (CFU/g; “0” value) was in the range of 240,000 to 300,000 in the various test series. For the tests for adequate preservation, (a) potentially synergistically active mixtures taken into account and (b), for comparison purposes, the corresponding unmixed 1,2-diols were incorporated in O/W emulsions. […] The variation in the total concentration of 1,2-diols or 1,2-diol mixtures in the O/W emulsions was compensated for by increasing or reducing the water content, so that otherwise identical formulations always comprised 100 parts by weight in total. […] The Kull equation enables the pure substances and the active compound mixtures prepared therefrom to be compared in respect of their antimicrobial activity. With this equation the so-called synergy index (SI), which is a measure for a synergistic activity, but also for a possible antagonistic activity, of a mixture having an antimicrobial action, is determined. A synergistic effect is evident if the SI value determined is less than 1. On the other hand, if an SI of precisely 1 is calculated, there is a pure additive effect of two substances having an antimicrobial action. In the case of an SI value greater than 1, on the other hand, there is a (frequently undesired) antagonistic effect.

[2] = tested on: Propionibacterium acnes ATCC 11829; test: MIC, agar dilution method; settings: Cutibacterium acnes, ATCC11829, anaerobic, Wilkins-Chalgren agar, 72 h at 30° C.
Procedure: Petri dishes 9.0 cm in diameter were charged with 13.5 ml freshly prepared Mueller-Hinton agar (Merck, Ref. 1.05437 or Wilkins-Chalgren agar boullion, Oxoid, Ref. CM 643, supplemented with log agar-agar/liter) kept liquid at 50° C., to which the various concentrations of the diluted samples were added in 10% (V/V)=1.5 ml. Mueller-Hinton agar that contained 3% Tween80 (Merck, Ref. 8.22 187) was used for the test germ Malassezia furfur. In each case 5 ml of the samples were diluted in distilled water and made up to 10 ml. The further test concentrations of the particular dilution series, which were prepared in the form of geometric series, were prepared by progressive 1:2 dilution of this batch with distilled water. […] Two agar plates were poured per test concentration and nutrient medium. After solidification and drying (approx. 1 h at 37° C.), the test plates were inoculated in point form with, in each case, 1 μl of the test germ suspensions listed below. To check purity and identity the bacteria that grow aerobically (Brevibacterium epidermidis, Corynebacterium xerosis, Staphylococcus epidermidis) were [lacuna] on Columbia blood agar (BioMérieux, Ref. 43049). […] Minimal, barely visible growth or few small individual colonies were evaluated as inhibition.

[3] = tested on: Staphylococcus epidermidis ATCC 12228; test: MIC, agar dilution method; settings: ATCC12228, Mueller-Hinton agar, 18 h at 36° C.
Procedure: (§1) Petri dishes 9.0 cm in diameter were charged with 13.5 ml freshly prepared Mueller-Hinton agar (Merck, Ref. 1.05437 or Wilkins-Chalgren agar boullion, Oxoid, Ref. CM 643, supplemented with log agar-agar/liter) kept liquid at 50° C., to which the various concentrations of the diluted samples were added in 10% (V/V)=1.5 ml. Mueller-Hinton agar that contained 3% Tween80 (Merck, Ref. 8.22 187) was used for the test germ Malassezia furfur. In each case 5 ml of the samples were diluted in distilled water and made up to 10 ml. The further test concentrations of the particular dilution series, which were prepared in the form of geometric series, were prepared by progressive 1:2 dilution of this batch with distilled water. […] Two agar plates were poured per test concentration and nutrient medium. After solidification and drying (approx. 1 h at 37° C.), the test plates were inoculated in point form with, in each case, 1 μl of the test germ suspensions listed below. To check purity and identity the bacteria that grow aerobically (Brevibacterium epidermidis, Corynebacterium xerosis, Staphylococcus epidermidis) were [lacuna] on Columbia blood agar (BioMérieux, Ref. 43049). The mould Aspergillus niger, the yeast Candida albicans and the two skin fungi Trichophyton mentagrophytes and Epidermophyton floccosum were cultured on Sabouraud agar (BioMérieux, Ref. 43555). Malassezia furfur was cultured on Sabourad HLT agar with disinhibitors (addition of 3% Tween80: 1%; lecithin: 0.3%; histidine: 0.1%; Merck, Ref. 1.18368). Propionibacterium acnes was cultured on Schaedler agar (BioMérieux, Ref. 43273). Further details on the test germs can be taken from Table 5. The preparation of the test germ suspensions of the bacterial germs that grow aerobically was carried out by incubation of Mueller-Hinton broth (Merck, Ref. 1.10293) which had been inoculated with a few individual colonies of the relevant test germs, at 36° C. After a distinct turbidity had been obtained, sterile nutrient broth was added to the suspensions in such an amount that the turbidity thereof corresponded to McFarland standard 0.5 (approx. 1.5×10^8 CFU/ml). All test germ suspensions with the exception of Propionibacterium acnes were diluted again 1:10 with sterile broth and the germ count thereof was determined by the surface method using a Spiralometer (results: see Table 5). The MIC (minimum inhibitory concentration) was regarded as the lowest concentration of active compound at which macroscopically there is no growth. Minimal, barely visible growth or few small individual colonies were evaluated as inhibition.

[4] = tested on: Corynebacterium xerosis ATCC 7711; test: MIC, agar dilution method; settings: ATCC7711, Mueller-Hinton agar, 18 h at 36° C.
Procedure: as §1

| MIC [2] | MIC [3] | MIC [4] | Compound | germ count A. niger ([1]; 0′-count (initial germ count)) | germ count A. niger ([1]; 24 h) | germ count A. niger ([1]; 48 h) | germ count A. niger ([1]; 4 d) | germ count A. niger ([1]; 7 d) | germ count A. niger ([1]; 14 d) | germ count A. niger ([1]; 14 d, listed as 1,2-hexanediol) | germ count A. niger ([1]; 28 d) | reduction in the number of colony forming units (CFU) to the 0 value [1] | germ count A. niger ([1]; 14 d, listed as 1,2-octanediol) |
| --- | --- | --- | --- | --- | --- | --- | --- | --- | --- | --- | --- | --- | --- |
| 25 mg/mL (≈ 212 mM) | 25 mg/mL (≈ 212 mM) | 12.5 mg/mL (≈ 106 mM) | CCCCC(O)CO (stereo not drawn) [HE3, 1,2-hexanediol] | 260,000 CFU/ml | 120,000 CFU/ml | 120,000 CFU/ml | 120,000 CFU/ml | 80,000 CFU/ml | 28,000 CFU/ml | 28000 CFU/ml | 800 CFU/ml | did not enable a reduction in the number of colony forming units (CFU) to the desired 0 value |  |
| 6.25 mg/mL (≈ 42.7 mM) | 12.5 mg/mL (≈ 85.5 mM) | 6.25 mg/mL (≈ 42.7 mM) | CCCCCCC(O)CO (stereo not drawn) [OC3, 1,2-octanediol] | 260,000 CFU/ml | 55,000 CFU/ml | 6,000 CFU/ml | 6,000 CFU/ml | 1,100 CFU/ml | 1,000 CFU/ml |  | 100 CFU/ml | did not enable a reduction in the number of colony forming units (CFU) to the desired 0 value | 1000 CFU/ml |

— patent publication US7582681B2, “Synergistic mixtures of 1,2-alkane diols” (Symrise GmbH & Co. KG, priority 2002, dated 2009)
